A short description of experiment [1]: (§1) Decrease of pigmentation in human MNT1 cells at 15 uM after 4 days. In kind it is functional. The settings on record: MNT-1, 96 h.
The target in experiment [2] is T1, Tyrosinase (Agaricus bisporus) (UniProt O42713).
T1 sequence (whole entry): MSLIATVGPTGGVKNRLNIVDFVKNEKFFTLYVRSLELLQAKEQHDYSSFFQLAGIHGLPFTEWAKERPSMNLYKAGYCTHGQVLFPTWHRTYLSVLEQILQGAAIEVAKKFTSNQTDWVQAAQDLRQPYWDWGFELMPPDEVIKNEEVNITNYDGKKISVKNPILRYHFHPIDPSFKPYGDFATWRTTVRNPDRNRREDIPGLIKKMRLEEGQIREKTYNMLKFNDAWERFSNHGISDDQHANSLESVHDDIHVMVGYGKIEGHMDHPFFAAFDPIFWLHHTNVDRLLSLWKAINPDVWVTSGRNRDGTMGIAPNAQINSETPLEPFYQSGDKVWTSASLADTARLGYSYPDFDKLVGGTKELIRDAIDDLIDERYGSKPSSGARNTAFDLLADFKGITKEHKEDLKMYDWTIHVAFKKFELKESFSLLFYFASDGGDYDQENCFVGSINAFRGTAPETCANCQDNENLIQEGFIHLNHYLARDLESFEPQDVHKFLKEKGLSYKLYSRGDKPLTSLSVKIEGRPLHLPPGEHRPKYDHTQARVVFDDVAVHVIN
The experiment can be described thus: Inhibition of mushroom tyrosinase at 15 uM.

Experiment [3] has as its target T1, Tyrosinase (Agaricus bisporus). The experiment can be described thus: Inhibition of mushroom tyrosinase at 1.7 uM.
Another experiment addresses T2, Tyrosinase (Agaricus bisporus, UniProt O42713).
T2 sequence (O42713 whole entry): T1 sequence (whole entry)
The experiment can be described thus: Inhibition of mushroom tyrosinase.

In the next experiment the test system is MNT1. The experiment is described as §1. It is filed as functional.

Structures are written as SMILES.

Usually inhibition stands for the change of the read-out against control, counted positive when it falls. For `Oc1ccc(-c2csc(Nc3ccccn3)n2)c(O)c1`, in experiment [1], the inhibition at 15 µM was 54%.

As for `C/C(=N\NC(=S)Nc1cccc(C)c1)c1cccc(N)c1`, the figures for the inhibition in experiment [2] and in experiment [3] were 52% and 44%, respectively. In addition, the inhibition at 15 µM in experiment [1] worked out at 38%.

With `O=C(O)c1cccc(Nc2nc(-c3ccc(O)cc3O)cs2)c1`, in experiment [1], the inhibition at 15 µM is -6%.

Regarding `C/C(=N\NC(=N)SC1CC(=O)N(c2ccc(Cl)cc2)C1=O)c1cccs1` (stereo not drawn), the inhibition in experiment [2] came to 40%; in experiment [3] it was 25%. In experiment [1], the inhibition at 15 µM is 19%.

Consider `S=c1[nH]c(-c2ccc3c(c2)OCO3)cn1-c1ccc(Oc2ccccc2)cc1`, for which the inhibition in experiment [2] was determined as 54%; in experiment [3], 41%. Besides, the inhibition at 15 µM in experiment [1] is 44%.

The IC50 is the midpoint of a concentration-inhibition curve. Higher therefore signals weaker potency. Regarding `COc1ccc(-c2nc(-c3ccc(O)cc3O)cs2)c(OC)c1`, the inhibition at 15 µM in experiment [1] worked out at 91%. This compound also showed an IC50 on Tyrosinase of 2 µM.

As for `Cc1cccnc1Nc1nc(-c2ccc(O)cc2O)cs1`, the inhibition at 15 µM in experiment [1] came out at 74%.

With `Cc1ccn2c(-c3csc(Nc4ccccn4)n3)c(C)nc2c1`, the inhibition at 15 µM in experiment [1] was determined as 48%.

In the case of `COc1ccc2nc(SCC(=O)Nc3ccc4c(c3)OCCO4)[nH]c2c1`, the inhibition in experiment [2] was found to be 43%; in experiment [3], 40%. Also, the inhibition at 15 µM in experiment [1] worked out at 34%.

For the compound `CC(=O)Nc1ccc(Nc2nc(-c3c(C)nc4ccc(C)cn34)cs2)cc1`, the inhibition is 46% in experiment [2] and 36% in experiment [3]. In the experiment on MNT1, the Activity entry is “Toxic”.

For `Cc1ccc(-c2csc(Nc3cc(C)ccn3)n2)cc1`, in experiment [1], the inhibition at 15 µM is 75%.

Consider `CCCCCOc1ccc(NC2=C(N3CCCC3)C(=O)c3ccccc3C2=O)cc1`, for which the inhibition in experiment [2] is 51%; in experiment [3] it was 47%. Moreover, the inhibition at 15 µM in experiment [1] was determined as 48%.

In the case of `Cc1ccccc1NC(=O)CSC(N)=O`, the inhibition was found to be 66% in experiment [2] and 47% in experiment [3]. The inhibition at 15 µM in experiment [1] was -15%.

Consider `O=S(=O)(c1ccc(NC(=S)Nc2ccccc2)cc1)N1CCCCC1`, for which the figures for the inhibition in experiment [2] and in experiment [3] were 48% and 23%, respectively. Moreover, in experiment [1], the inhibition at 15 µM was 56%.

In the case of `Cc1ccnc(Nc2nc(-c3ccc(O)cc3O)cs2)c1`, in experiment [1], the inhibition at 15 µM came to 83%. Also, the IC50 against Tyrosinase is 0.1 µM.

These data come from ChEMBL document CHEMBL1138276, “Discovery of small-molecule inhibitors of tyrosinase” (Bioorg Med Chem Lett, 2007).
